Assay results from publication PMC9819389, “Antiandrogenic and Estrogenic Activity Evaluation of Oxygenated and Nitrated Polycyclic Aromatic Hydrocarbons Using Chemically Activated Luciferase Expression Assays” (International Journal of Environmental Research and Public …, 2022).
pEC50, pIC50: −log10 of the molar value. Entries after “also recorded” stand apart in the source; their conditions may differ. Read-outs that look alike come from different tables or passages of the source. Marks after values point to notes of the source that are not given here. Each block holds one compound with its values, some of them ahead of it.

Key:
[1] = target: T1, human AR (Homo sapiens, UniProt P10275); assay: AR-CALUX assay, antiandrogenic (AR antagonistic) activity, U2OS-luc cells; assay type: cell-based; design: host or cells: human U2OS-luc (osteoblastic osteosarcoma) cells; settings: for REPmol (IC25): molar relative potency to flutamide, IC25-based
T1 sequence (P10275 1-920): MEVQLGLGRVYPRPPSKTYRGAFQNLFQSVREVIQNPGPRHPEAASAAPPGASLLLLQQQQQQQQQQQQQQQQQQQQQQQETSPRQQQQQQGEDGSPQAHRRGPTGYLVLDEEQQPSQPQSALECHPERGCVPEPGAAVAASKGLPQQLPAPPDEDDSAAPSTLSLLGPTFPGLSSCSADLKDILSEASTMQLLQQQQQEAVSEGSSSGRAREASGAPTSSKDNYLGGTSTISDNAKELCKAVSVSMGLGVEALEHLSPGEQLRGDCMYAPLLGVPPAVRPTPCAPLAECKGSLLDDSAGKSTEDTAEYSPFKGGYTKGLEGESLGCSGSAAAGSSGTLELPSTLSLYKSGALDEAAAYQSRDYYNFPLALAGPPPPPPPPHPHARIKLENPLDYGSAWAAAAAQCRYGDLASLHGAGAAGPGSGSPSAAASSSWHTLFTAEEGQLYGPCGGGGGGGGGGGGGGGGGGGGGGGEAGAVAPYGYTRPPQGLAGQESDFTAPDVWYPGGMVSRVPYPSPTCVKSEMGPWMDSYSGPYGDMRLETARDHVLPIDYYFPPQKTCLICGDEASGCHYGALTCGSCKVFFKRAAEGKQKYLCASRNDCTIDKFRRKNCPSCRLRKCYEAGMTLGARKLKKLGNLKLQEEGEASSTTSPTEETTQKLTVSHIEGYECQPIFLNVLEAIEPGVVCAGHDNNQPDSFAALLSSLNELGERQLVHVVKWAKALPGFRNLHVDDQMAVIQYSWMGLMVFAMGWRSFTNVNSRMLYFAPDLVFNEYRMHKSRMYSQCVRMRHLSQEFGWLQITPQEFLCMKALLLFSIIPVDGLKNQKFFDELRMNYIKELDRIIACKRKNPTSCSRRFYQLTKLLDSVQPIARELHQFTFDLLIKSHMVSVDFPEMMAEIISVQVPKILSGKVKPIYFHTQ
Procedure: The AR- and ER-CALUX assays for the polycyclic aromatic compounds were evaluated according to previously described methods, which used human U2OS-luc cells developed by BioDetection Systems b.v. (Amsterdam, The Netherlands). The cells are transfected stably with human AR and ER, respectively, and a luciferase reporter gene under their respective steroid receptor response elements. […] They were incubated at 37 °C in a humidified atmosphere containing 5% carbon dioxide. […] The medium was then removed, and the cells were lysed. A solution of luciferin was then added, and the luminescence intensity was measured with an ARVO™ X3 luminometer from PerkinElmer (Waltham, MA, USA). A sigmoid dose–response curve for a chemical was fitted to the Hill equation given by Equation (1) using SigmaPlot 11.0 from Systat Software Inc. (San Jose, CA, USA). y = min + (max − min)/(1 + (a1/x)^a^2)(1) where, y and x are the measured luciferase induction level and compound concentration, respectively. […] The REP values in mol base were obtained by dividing the ICs or ECs of the standard by the ICs or ECs of target compound, respectively.
All measurements were conducted in triplicate wells. They were repeated twice and trice in the AR- and ER-CALUX assays, respectively, for each concentration in dose–response curve. […] Cell viability was confirmed using 3-(4,5-dimethylthiazol-2-yl)-2,5-diphenyltetrazolium bromide (MTT) assay. If the cell viability was <80% in the positive control, the corresponding exposure dose was considered cytotoxic and excluded from the calculation.

[2] = target: T2, human ER (Homo sapiens, UniProt P03372); assay: ER-CALUX assay, estrogenic activity, U2OS-luc cells; assay type: cell-based; design: host or cells: human U2OS-luc (osteoblastic osteosarcoma) cells; settings: for EC50 / REPmol (EC50) / pEC50: present study; for EC50 / pEC50: 24 h exposure; for REPmol (EC50): molar relative potency to E2, EC50-based; for pEC50: read-out: EC50
T2 sequence (P03372 1-595): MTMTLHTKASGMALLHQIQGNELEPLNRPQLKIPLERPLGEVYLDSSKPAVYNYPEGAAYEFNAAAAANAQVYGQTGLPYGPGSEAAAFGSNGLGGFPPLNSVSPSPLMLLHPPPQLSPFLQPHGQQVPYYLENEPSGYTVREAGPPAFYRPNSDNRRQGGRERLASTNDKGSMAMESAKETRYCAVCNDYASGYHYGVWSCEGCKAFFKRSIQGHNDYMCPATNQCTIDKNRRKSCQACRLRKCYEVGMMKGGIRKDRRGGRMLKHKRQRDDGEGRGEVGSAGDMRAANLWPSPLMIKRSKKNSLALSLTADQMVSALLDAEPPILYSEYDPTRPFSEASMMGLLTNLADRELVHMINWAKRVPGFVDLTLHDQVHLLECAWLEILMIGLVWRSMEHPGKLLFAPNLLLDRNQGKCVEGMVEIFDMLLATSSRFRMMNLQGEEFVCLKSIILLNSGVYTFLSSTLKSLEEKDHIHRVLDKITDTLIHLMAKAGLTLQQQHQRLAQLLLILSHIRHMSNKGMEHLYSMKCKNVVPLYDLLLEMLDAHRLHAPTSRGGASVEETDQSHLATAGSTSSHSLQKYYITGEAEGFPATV

[3] = system: AR; settings: previous study, cited from earlier work
[4] = system: ER; design: method as in Boonen et al. [33]; settings: previous study; relative to E2; ref Boonen et al. [33]; cited from earlier work
[5] = system: AR; design: method as in Okamura et al. [22]; key: +, positive; settings: cited from earlier work
[6] = system: ER; settings: cited from earlier work
[7] = system: ER; design: method as in Pieterse et al. [30]; settings: previous study; relative to E2; ref Pieterse et al. [30]; cited from earlier work
[8] = present study, 24 h exposure with 100 pM DHT (EC50 level)
[9] = previous study, ref Okamura et al. [22]
[10] = relative to flutamide, ref Alvarez-Muñoz et al. [28]
[11] = relative to flutamide, ref Pieterse et al. [30]

Compound: O=[N+]([O-])c1cc([N+](=O)[O-])c2ccc3cccc4ccc1c2c43 [1,3-DNPy, 1,3-dinitropyrene]
pIC50 [1]: 6.68
inhibition of AR-mediated luciferase activity ([1]; coexposure to DHT at 10 nM (100 × EC50), compound at 3 μM): 33%
mode of AR inhibition ([1]; from coexposure to 10 nM DHT): noncompetitive
IC25 [1, 8]: 130 nM
REPmol (IC25) ([1]; present study): 0.88
EC50 [2]: U (< 10% response of 1 nM E2)
REPmol (EC50) [2]: U (< 10% response of 1 nM E2)

Compound: O=[N+]([O-])c1ccc2ccc3ccc([N+](=O)[O-])c4ccc1c2c34 [1,8-DNPy, 1,8-dinitropyrene]
REPmol (IC25) ([1]; present study): 0.91
REPmol (EC50) [2]: U (< 10% response of 1 nM E2)

Compound: O=[N+]([O-])c1cc2c3ccccc3ccc2c2ccccc12 [6-NChr, 6-nitrochrysene]
IC25 [1, 8]: 39 nM
REPmol (IC25) ([1]; present study): 3.2
pIC50 ([1]; read-out: IC50): 7.06

Compound: O=[N+]([O-])c1ccc2c(c1)-c1cccc3cccc-2c13 [8-NFA, 8-Nitrofluoranthene]
IC25 [1, 8]: 98 nM
REPmol (IC25) ([1]; present study): 1.3
pIC50 ([1]; read-out: IC50): 6.57

Compound: c1ccc2cc3ccccc3cc2c1 [Ant, abthracene]
REPmol, U2OS ([3]; relative to flutamide, ref Marin-Kuan et al. [29]): 0.2 ^d
REPmol, VM7 [4]: 8.3 × 10^−7

Compound: O=C1c2ccccc2-c2cccc3cccc1c23 [BAO, 7H-benz[de]anthracen-7-one]
REPmol, U2OS ([3]; relative to flutamide, ref Weiss et al. [34]): 0.014 ^c
pEC50 [2]: 4.80

Compound: O=C1c2cccc3ccc4ccc5cccc1c5c4c23 [BPO, 6H-benzo[cd]pyren-6-one]
antiandrogenic activity (in words) ([1]; present study): not observed
EC50 [2]: U (key: U: < 10% response of 1 nM E2; nd: not detected)
REPmol (EC50) [2]: U (key: U: < 10% response of 1 nM E2; nd: not detected)

Compound: c1cc2ccc3ccc4ccc5cccc6c(c1)c2c3c4c56 [BPe, Benzo[ghi]perylene]
antiandrogenic activity, PC3 [5]: +

Compound: O=C1c2ccccc2-c2ccc3ccccc3c21 [B[a]FO, 11H-Benzo[a]fluoren-11-one]
IC25 [1, 8]: 300 nM
REPmol (IC25) ([1]; present study): 0.43
pIC50 ([1]; read-out: IC50): 6.17
pEC50 [2]: 5.32

Compound: c1ccc2c(c1)-c1cccc3c1c-2cc1ccccc13 [B[b]FA, benzo[b]fluoranthene]
antiandrogenic activity, PC3 [5, 9]: +

Compound: O=C1c2ccccc2-c2cc3ccccc3cc21 [B[b]FO, 11H-benzo[b]fluoren-11-one]
IC25 [1, 8]: 150 nM
REPmol (IC25) ([1]; present study): 0.81
pIC50 ([1]; read-out: IC50): 6.28
pEC50 [2]: 5.32

Compound: c1ccc2c(c1)ccc1ccc3ccccc3c12 [B[c]Phe, Benzo[c]phenanthrene]
IC25 [1, 8]: 110 nM
REPmol (IC25) ([1]; present study): 1.0
pIC50 ([1]; read-out: IC50): 6.43
activation (level of the response to 1 nM E2) ([2]; at 8 μM): 27% activation at 8 μM

Compound: c1ccc2c(c1)c1cccc3ccc4cccc2c4c31 [B[e]P, benzo[e]pyrene]
antiandrogenic activity, PC3 [5, 9]: +
inhibition at 10 µM ([1]; at 10 μM, maximum soluble concentration, read-out: inhibition of AR activation): > 15%
antiandrogenic activity (in words) ([1]; present study): partial antagonist
EC50 [2]: U (key: U: < 10% response of 1 nM E2; nd: not detected)
REPmol (EC50) [2]: U (key: U: < 10% response of 1 nM E2; nd: not detected)

Compound: c1ccc2c3c(ccc2c1)-c1cccc2cccc-3c12 [B[j]FA, benzo[j]fluoranthene]
antiandrogenic activity, PC3 [5, 9]: +
IC25 [1, 8]: 130 nM
REPmol (IC25) ([1]; present study): 0.84
pIC50 ([1]; read-out: IC50): 6.54
activation (level of the response to 1 nM E2) ([2]; at 3 μM): 13% activation at 3 μM

Compound: c1ccc2cc3c(cc2c1)-c1cccc2cccc-3c12 [B[k]FA, benzo[k]fluoranthene]
REPmol, U2OS [3, 10]: 2.6 ^f
antiandrogenic activity, PC3 [5, 9]: +

Compound: c1ccc2c(c1)ccc1c3ccccc3ccc21 [Chr, Chrysene]
antiandrogenic activity, PC3 [5]: +
REPmol, T47D [6]: U (key: U: < 10% response of 1 nM E2; nd: not detected)

Compound: c1ccc2c(c1)cc1ccc3c4ccccc4cc4ccc2c1c43 [DB[a,h]P, dibenzo[a,h]pyrene]
REPmol, U2OS [3, 11]: <0.003 ^e
REPmol, U2OS [7]: 2 × 10^−5
antiandrogenic activity (in words) ([1]; present study): not observed; also recorded: inactive

Compound: c1ccc2c(c1)cc1ccc3cc4ccccc4c4ccc2c1c34 [DB[a,i]P, dibenzo[a,i]pyrene]
antiandrogenic activity (in words) ([1]; present study): not observed; also recorded: inactive
activation (level of the response to 1 nM E2) ([2]; at 3 μM): 14% activation at 3 μM

Compound: c1ccc2c(c1)cc1ccc3cccc4c5ccccc5c2c1c34 [DB[a,l]P, dibenzo[a,l]pyrene]
IC25 [1, 8]: 3600 nM
REPmol (IC25) ([1]; present study): 0.037
pIC50 ([1]; read-out: IC50): 5.05
EC50 [2]: U (key: U: < 10% response of 1 nM E2; nd: not detected)
REPmol (EC50) [2]: U (key: U: < 10% response of 1 nM E2; nd: not detected)

Compound: c1ccc2c(c1)-c1cccc3cccc-2c13 [FA, fluoranthene]
REPmol, U2OS [3, 10]: 0.96 ^f
REPmol, VM7 [4]: 4.1 × 10^−7

Compound: CC(C)C(=O)Nc1ccc([N+](=O)[O-])c(C(F)(F)F)c1 [Flutamide, reference compound]
REPmol, U2OS ([3]; the standard itself, no reference given): 1

Compound: c1ccc2c(c1)-c1ccc3ccc4cccc5cc-2c1c3c45 [IdP, indeno[1,2,3-cd]pyrene]
REPmol, U2OS [3, 10]: 0.35 ^f
antiandrogenic activity, PC3 [5, 9]: +

antiandrogenic activity (in words) ([1]; present study): not observed
EC50 [2]: U (< 10% response of 1 nM E2)
REPmol (EC50) [2]: U (< 10% response of 1 nM E2)
Compound: O=C1c2ccccc2C(=O)c2cc3ccccc3cc21 [NCQ, 5,12-naphthacenequinone]

Compound: O=C1C=Cc2ccccc2C1=O [NphQ, 1,2-naphthoquinone]
antiandrogenic activity (in words) ([1]; present study): not observed

IC25 [1, 8]: 840 nM
REPmol (IC25) ([1]; present study): 0.12
pIC50 ([1]; read-out: IC50): 5.70
EC50 [2]: U ^j (< 10% response of 1 nM E2)
REPmol (EC50) [2]: U (< 10% response of 1 nM E2)
Compound: O=C1C=Cc2cccc3cccc1c23 [PhO, Phenalenone]

Compound: c1ccc2c(c1)ccc1ccccc12 [Phe, phenanthrene]
REPmol, U2OS [3, 11]: 0.1 ^e
REPmol, U2OS [7]: <3 × 10^−9
REPmol, VM7 [4]: 1.2 × 10^−6

Compound: cyclopenta[cd]pyrene [CPP]
IC25 [1, 8]: 580 nM
pIC50 ([1]; present study, 24 h exposure with 100 pM DHT (EC50 level), read-out: IC50): 5.89
REPmol (IC25) ([1]; present study): 0.14
